The target of one experiment is T1, androgen receptor (Homo sapiens, UniProt P10275).
T1 construct: endogenous in cells; host or cells: unnamed cells (cytosol fraction)
T1 sequence (P10275 1-920): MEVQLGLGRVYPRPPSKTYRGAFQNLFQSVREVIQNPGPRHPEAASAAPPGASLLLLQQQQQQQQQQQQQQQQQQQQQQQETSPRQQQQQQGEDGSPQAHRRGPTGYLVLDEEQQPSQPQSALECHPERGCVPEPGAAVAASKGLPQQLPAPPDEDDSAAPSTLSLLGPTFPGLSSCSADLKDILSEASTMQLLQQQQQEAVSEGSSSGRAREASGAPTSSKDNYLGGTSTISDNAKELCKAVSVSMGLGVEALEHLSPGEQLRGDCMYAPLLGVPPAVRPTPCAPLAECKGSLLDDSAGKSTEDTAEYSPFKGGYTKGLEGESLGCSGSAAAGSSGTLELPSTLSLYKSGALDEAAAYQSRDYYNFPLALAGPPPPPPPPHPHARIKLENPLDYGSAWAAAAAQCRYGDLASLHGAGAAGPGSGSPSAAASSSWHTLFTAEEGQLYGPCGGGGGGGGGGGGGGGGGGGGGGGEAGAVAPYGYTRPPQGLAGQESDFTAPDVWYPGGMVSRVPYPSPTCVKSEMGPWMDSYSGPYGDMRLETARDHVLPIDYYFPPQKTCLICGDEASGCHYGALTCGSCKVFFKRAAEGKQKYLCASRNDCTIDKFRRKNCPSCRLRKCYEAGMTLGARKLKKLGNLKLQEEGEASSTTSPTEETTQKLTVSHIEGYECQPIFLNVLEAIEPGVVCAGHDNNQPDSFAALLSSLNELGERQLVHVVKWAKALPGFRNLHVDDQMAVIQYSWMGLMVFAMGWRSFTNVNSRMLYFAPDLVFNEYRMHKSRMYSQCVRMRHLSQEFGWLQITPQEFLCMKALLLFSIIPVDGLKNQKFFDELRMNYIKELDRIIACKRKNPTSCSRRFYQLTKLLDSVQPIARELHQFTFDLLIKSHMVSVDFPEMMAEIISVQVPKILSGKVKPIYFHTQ
Put plainly: Binding affinity to androgen receptor ([3H]methyltrienolone radioligand, cell cytosol). The following applies: Table 6. On the procedure:
Fractions of cell cytosol ([…]) were incubated for 24 hr at 4° C. with 1 nM [^3H]methyltrienolone in the absence or presence of the test compound in a buffer containing 25 mM Hepes-Tris (pH 7.4), 1 mM EDTA, 10 mM Na2MoO4, 2 mM DTT, 5 μM triamcinolone acetonide, and 10% glycerol. Nonspecific binding was determined in the presence of 1 μM testosterone. Following incubation, the samples were filtered rapidly under vacuum through glass fiber filters (GF/B, Packard) presoaked with 0.3% PEI and rinsed several times with ice-cold 50 mM Tris-HCl using a 96-sample cell harvester (Unifilter, Packard). The filters were dried then counted for radioactivity in a scintillation counter (Topcount, Packard) using a scintillation cocktail (Microscint 0, Packard). The results are expressed as a percent inhibition of the control radioligand specific binding. The standard reference compound is testosterone, which is tested in each experiment at several concentrations to obtain a competition curve from which its IC50 is calculated.

The test system of experiment [1] is T-Rex 293 cell line SC cells having increased expression of progesterone receptor isoform B protein. Put plainly: Cellular growth inhibition, T-Rex 293 SC cells with doxycycline (increased progesterone receptor isoform B expression). The experiment is classed as cell-based. As to conditions: with 10 ng/mL doxycycline (increased progesterone receptor isoform B), 72 hours, CellTiter-Glo 2.0. The method, then: (§1) The following types of cells were prepared for this experiment: (i) a T-Rex 293 cell line having increased expression of progesterone receptor isoform B protein due to exposure to doxycycline and (ii) a T-Rex 293 cell line lacking increased expression of progesterone receptor isoform B protein. Ability of the test compounds to inhibit proliferation of the foregoing cell types was evaluated according to the procedures set forth below.
(§2) The doxycycline-inducible progesterone receptor isoform B protein expressing cell line was established using the following protocol: T-Rex 293 cells were purchased from Invitrogen (Cat #R71007) and transfected using Lipofectamine 2000 with the wild-type progesterone receptor B protein sequence cloned into the pcDNA4/TO vector. Transfected cells were selected using 400 μg/mL Zeocin (Invitrogen Cat #R25001). Following selection, single clones were raised and maintained in Dulbecco's Modified Eagle Medium (DMEM) supplemented with 10% w/w Tetracycline-free fetal bovine serum (FBS) and 250 μg/mL Zeocin. Clones were analyzed for expression of progesterone receptor isoform B protein in the presence and absence of 10 ng/mL doxycycline (Sigma Cat #D9891), and a single doxycycline-inducible clone (hereinafter “SC”) was selected for use in downstream assays.
(§3) The SC cells were seeded on poly-D-lysine coated, black clear-bottom 384-well plates at 2500/well, in 25 μL Phenol Red Free Dulbecco's Modified Eagle Medium (DMEM) supplemented with 10% w/w charcoal-dextran treated fetal bovine serum (FBS) and 1% w/w pen-strep, with or without 10 ng/mL doxycycline. Pen-Strep is a commercially available mixture of penicillin G and streptomycin, which is used in mammalian cell culture media to prevent bacterial contamination. Phenol Red Free Dulbecco's Modified Eagle Medium (DMEM) supplemented with 10% w/w charcoal-dextran treated fetal bovine serum (FBS) and 1% w/w pen-strep, with or without 10 ng/mL doxycycline is herein referred to as Treatment Medium. Following seeding of cells in the plates, the plates were spun at 300×g for 30 seconds, then equilibrated to room temperature for 30 minutes, and then deposited in a humidified tissue culture incubator maintained at 37° C. with 5% CO2.
(§4) At 24 hours after seeding of the cells, dilutions of test compound were prepared in DMSO and dissolved in Treatment Medium, to achieve a final DMSO concentration of 0.5% w/w, thereby providing the Test Compound Solution. A 25 μL aliquot of the Test Compound Solution was added to cells in the well plates. An equal volume of a solution containing DMSO and Treatment Medium was used as a negative control. Following treatment of cells with Test Compound Solution or said equal volume of a solution containing DMSO and Treatment Medium, the plates were spun at 300×g for 30 seconds, and then left in an incubator for 72 hours.
(§5) At the end of the treatment duration, cell viability was quantified with CellTiter-Glo 2.0 reagent (Promega Cat #G9243). For this purpose, plates were equilibrated to room temperature for 30 minutes, and then 25 μL of CellTiter-Glo 2.0 reagent was added to cells in the plate wells. Plates were then agitated on a shaker for two minutes at 500 rpm and subsequently incubated at room temperature for 10 minutes. Following incubation, the plates were spun at 3000×g for 30 seconds, then sealed with an optical adhesive cover, and luminescence readings were measured with an EnVision Plate Reader (Perkin Elmer).
(§6) Data was normalized using zero luminescence for baseline. A four-parameter non-linear regression curve fit was applied to dose-response data in GraphPad Prism data analysis software to determine the half-maximal growth inhibitory concentration (GI50) for each test compound.

Experiment [2] deals with T-Rex 293 cell line SC cells lacking increased expression of progesterone receptor isoform B protein. As to the kind of experiment: Cellular growth inhibition, T-Rex 293 SC cells without doxycycline. The experiment is classed as cell-based. The following applies: not exposed to doxycycline, 72 hours, CellTiter-Glo 2.0. The method, then: as §1, §2, §3, §4, §5, §6

The structures appear in SMILES notation. pKd: −log10 of the molar value. A value given as a limit tells only on which side of the number the result lay.

`CCc1cnn2c(NCc3ccc(OCCN(C)c4ncc(C(=O)N[C@H]5C(C)(C)[C@H](Oc6ccc(C#N)c(Cl)c6)C5(C)C)cn4)nc3)cc(N3CCCC[C@H]3CCO)nc12` [Compound I-1] gave a pKd at androgen receptor greater than 7.30. As to `CCc1cnn2c(NCc3ccc(OCCOCCOCCOCCOCCN(C)c4ncc(C(=O)N[C@H]5C(C)(C)[C@H](Oc6ccc(C#N)c(Cl)c6)C5(C)C)cn4)nc3)cc(N3CCCC[C@H]3CCO)nc12` [Compound I-3], the GI50 in experiment [1] and in experiment [2] was less than 500 nM in each case.

On androgen receptor, `CCc1cnn2c(NCc3ccc(OCCOCCOCCOCCOCCOC4CCN(c5ncc(C(=O)N[C@H]6C(C)(C)[C@H](Oc7ccc(C#N)c(Cl)c7)C6(C)C)cn5)CC4)nc3)cc(N3CCCC[C@H]3CCO)nc12` [Compound I-9] had a pKd greater than 7.30. `CCc1cnn2c(NCc3ccc(OCCCCOCCOC4CCN(c5ncc(C(=O)N[C@H]6C(C)(C)[C@H](Oc7ccc(C#N)c(Cl)c7)C6(C)C)cn5)CC4)nc3)cc(N3CCCC[C@H]3CCO)nc12` [Compound I-34] had a pKd on androgen receptor greater than 7.30. `CCc1cnn2c(NCc3ccc(OCCN4CCN(CC5CCN(c6ncc(C(=O)N[C@H]7C(C)(C)[C@H](Oc8ccc(C#N)c(Cl)c8)C7(C)C)cn6)CC5)CC4)nc3)cc(N3CCCC[C@H]3CCO)nc12` [Compound I-41]: the GI50 in experiment [1] and in experiment [2] was less than 500 nM each time.

On to `CCc1cnn2c(NCc3ccc(OCCCCN4CCN(CC5CCN(c6ncc(C(=O)N[C@H]7C(C)(C)[C@H](Oc8ccc(C#N)c(Cl)c8)C7(C)C)cn6)CC5)CC4)nc3)cc(N3CCCC[C@H]3CCO)nc12` [Compound I-43], for which, on androgen receptor, the pKd was greater than 7.30. Same read-out and setting: to `CCc1cnn2c(NCc3ccc(OCCOCC4CCN(CC5CCN(c6ncc(C(=O)N[C@H]7C(C)(C)[C@H](Oc8ccc(C#N)c(Cl)c8)C7(C)C)cn6)CC5)CC4)nc3)cc(N3CCCC[C@H]3CCO)nc12` [Compound I-45] belongs greater than 7.30. As for `CCc1cnn2c(NCc3ccc(OC4CCN(CC5CCN(c6ncc(C(=O)N[C@H]7C(C)(C)[C@H](Oc8ccc(C#N)c(Cl)c8)C7(C)C)cn6)CC5)CC4)nc3)cc(N3CCCC[C@H]3CCO)nc12` [Compound I-46], the GI50 in experiment [1] and in experiment [2] was less than 500 nM each time. In turn, `CCc1cnn2c(NCc3ccc(OCCN4CCN(CC5CCN(c6ncc(C(=O)N[C@H]7C(C)(C)[C@H](Oc8ccc(C#N)c(Cl)c8)C7(C)C)cn6)CC5)CC4)nc3)cc(-c3ccccc3)nc12` [Compound I-47, N-((1r,3r)-3-(3-chloro-4-cyanophenoxy)-2,2,4,4-tetramethylcyclobutyl)-2-(4-((4-(2-((5-(((3-ethyl-5-phenylpyrazolo[1,5-a]pyrimidin-7-yl)amino)methyl)pyridin-2-yl)oxy)ethyl)piperazin-1-yl)methyl)piperidin-1-yl)pyrimidine-5-carboxamide] showed a pKd on androgen receptor greater than 7.30. Take `CCc1cnn2c(NCc3ccc(OCC4CCN(CC5CCN(c6ncc(C(=O)N[C@H]7C(C)(C)[C@H](Oc8ccc(C#N)c(Cl)c8)C7(C)C)cn6)CC5)CC4)nc3)cc(N3CCCC[C@H]3CCO)nc12` [Compound I-51]: the GI50 in experiment [1] and in experiment [2] was less than 500 nM throughout. Regarding `CCc1cnn2c(NCc3ccc(OCCCN4CCN(C5CN(c6ncc(C(=O)N[C@H]7C(C)(C)[C@H](Oc8ccc(C#N)c(Cl)c8)C7(C)C)cn6)C5)CC4)nc3)cc(N3CCCC[C@H]3CCO)nc12` [Compound I-60], at androgen receptor, the pKd was greater than 7.30. Still for that read-out and setting: with `CCc1cnn2c(NCc3ccc(OCCCN4CCC(C5CN(c6ncc(C(=O)N[C@H]7C(C)(C)[C@H](Oc8ccc(C#N)c(Cl)c8)C7(C)C)cn6)C5)CC4)nc3)cc(N3CCCC[C@H]3CCO)nc12` [Compound I-61] the figure was greater than 7.30.

In turn, `CCc1cnn2c(NCc3ccc(N4CCC(CN5CCC6CN(c7ncc(C(=O)N[C@H]8C(C)(C)[C@H](Oc9ccc(C#N)c(Cl)c9)C8(C)C)cn7)CCC6C5)CC4)nc3)cc(N3CCCC[C@H]3CCO)nc12` (stereo partly drawn) [Compound I-71] showed a pKd on androgen receptor greater than 7.30. In turn, `CCc1cnn2c(NCc3ccc(N4CC(OCCN5CC6CN(c7ncc(C(=O)N[C@H]8C(C)(C)[C@H](Oc9ccc(C#N)c(Cl)c9)C8(C)C)cn7)CC6C5)C4)nc3)cc(N3CCCC[C@H]3CCO)nc12` (stereo partly drawn) [Compound I-72] gave a pKd on androgen receptor greater than 7.30.

In the case of `CC(C)n1cc(-c2ccnc3[nH]c(C4CCN(CCN5CCN(CC6CCN(c7ncc(C(=O)NC8C(C)(C)C(Oc9ccc(C#N)c(Cl)c9)C8(C)C)cn7)CC6)CC5)CC4)cc23)ccc1=O` (stereo not drawn) [Compound I-74, N-[3-(3-chloro-4-cyano-phenoxy)-2,2,4,4-tetramethyl-cyclobutyl]-2-[4-[[4-[2-[4-[4-(1-isopropyl-6-oxo-3-pyridyl)-1H-pyrrolo [2,3-b]pyridin-2-yl]-1-piperidyl]ethyl]piperazin-1-yl]methyl]-1-piperidyl]pyrimidine-5-carboxamide], the GI50 in experiment [1] and in experiment [2] was less than 500 nM throughout. Turning to `CCc1cnn2c(NCc3ccc(N4CCC(N5CCN(C6CN(c7ncc(C(=O)N[C@H]8C(C)(C)[C@H](Oc9ccc(C#N)c(Cl)c9)C8(C)C)cn7)C6)CC5)CC4)nc3)cc(N3CCCC[C@H]3CCO)nc12` [Compound I-86], the concentration for 50% growth inhibition (GI50) in experiment [1] and in experiment [2] was less than 500 nM throughout. As to `CC1(C)[C@H](NC(=O)c2cnc(N3CCC(CN4CCN(CCN5C/C=C/CCOc6cccc(c6)-c6ccnc(n6)Nc6cccc(c6)C5)CC4)CC3)nc2)C(C)(C)[C@H]1Oc1ccc(C#N)c(Cl)c1` [Compound I-94], the GI50 in experiment [1] was 500 to 1500 nM; in experiment [2], greater than 3000 nM.

The values above are taken from US20260159520A1, “HETEROBIFUNCTIONAL COMPOUNDS AND METHODS OF TREATING DISEASE” (Halda Therapeutics OpCo, Inc., priority 2022, published 2026).
